Laboratory results: patent US20060094880A9, “Synthetic process for trans-aminocyclohexyl ether compounds” (priority 2003, published 2006)

Tested on: sustained AF maintained during continuous vagal nerve stimulation
Test: Canine vagal-AF model: termination of sustained AF during continuous vagal nerve stimulation
Format: in vivo, Mongrel dogs
Method: St.-Georges et al., 1997). Dogs are ventilated mechanically with room air supplemented with oxygen via an endotracheal tube at 20 to 25 breaths/minute with a tidal volume obtained from a nomogram. […] Catheters are inserted into the femoral artery for blood pressure recording and blood gas measurement, and into both femoral veins for drug administration and venous sampling. […] Body temperature is maintained at 37-40° C. with a heating blanket. The heart is exposed via a medial thoracotomy and a pericardial cradle is created. […] Drug effects to terminate sustained AF maintained during continuous vagal nerve stimulation are assessed. […] The vagal stimulation voltage is adjusted under control conditions, and then readjusted after each treatment to maintain the same bradycardic effect. […] Diastolic threshold and ERP are determined in duplicate and averaged to give a single value. […] The interval from the stimulus artefact and the peak of the local electrogram is measured as an index of conduction velocity. […] The stimulus voltage-heart rate relationship for vagal nerve stimulation is determined under control conditions in most experiments. […] After the termination of AF, the diastolic threshold and ERP of the atrium and ventricle are determined. […] Group data are expressed as the mean ±SEM. […]

O=C(NCC1CCCCN1)c1cc(OCC(F)(F)F)ccc1OCC(F)(F)F (stereo not shown) [Flecainide]
Effectiveness as a control in the present study: comparable to that previously reported
